Source: patent US8637525B2, “Compounds for the reduction of beta-amyloid production” (Bristol-Myers Squibb Company, priority 2009, dated 2014)

Each compound was assayed on Aβ1-42 production (assay: Cellular assay for inhibition of Aβ1-42 production (H4 APP751 SWE clone 8.20)). Details: 19 h, H4 APP751 SWE clone 8.20 cells, 19 h incubation; class symbols; read-out: Activity Rating (Aβ42 cellular IC50).
Format: cell-based
Outline: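 19 h cell treatment, 37 °C/5% CO2. Detection of secreted Aβ42 in the cell plate: 565 (Aβ42-specific, Wallac) and 26D6 (N-terminal, APC), overnight 4 °C. IC50 from fitted curves.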
For `CNc1nc(Nc2ccc(-n3cnc(Cl)c3)c(OC)c2)nc2c1CCC2c1cc(F)c(F)c(F)c1` (racemic) [Example 103, N^2-(4-(4-chloro-1H-imidazol-1-yl)-3-methoxyphenyl)-N^4-methyl-7-(3,4,5-trifluorophenyl)-6,7-dihydro-5H-cyclopenta[d]pyrimidine-2,4-diamine], the IC50 was 1.5 to 9.9 nM.
In the case of `CCNc1nc(Nc2ccc(-n3cnc(Cl)c3)c(OC)c2)nc2c1CN(S(=O)(=O)C1CC1)CC2c1ccccc1` (centres unmarked) [Example 136, N2-(4-(4-chloro-1H-imidazol-1-yl)-3-methoxyphenyl)-6-(cyclopropylsulfonyl)-N4-ethyl-8-phenyl-5,6,7,8-tetrahydropyrido[4,3-d]pyrimidine-2,4-diamine], the IC50 is reported as 1.5 to 9.9 nM.
`COc1cc(Nc2nc3c(c(N4CCN(C)CC4)n2)CCC3c2ccc(F)cc2)ccc1-n1cnc(Cl)c1` (single isomer, unassigned) [Example 30A, N-(4-(4-chloro-1H-imidazol-1-yl)-3-methoxyphenyl)-7-(4-fluorophenyl)-4-(4-methylpiperazin-1-yl)-6,7-dihydro-5H-cyclopenta[d]pyrimidin-2-amine] showed an IC50 of 10 to 100 nM.
With `COc1cc(Nc2nc3c(c(N(C)C)n2)CN(S(C)(=O)=O)CC3c2ccccc2)ccc1-n1cnc(Cl)c1` (centres unmarked) [Example 147, N2-(4-(4-chloro-1H-imidazol-1-yl)-3-methoxyphenyl)-N4,N4-dimethyl-6-(methylsulfonyl)-8-phenyl-5,6,7,8-tetrahydropyrido[4,3-d]pyrimidine-2,4-diamine] the IC50 was 10 to 100 nM.
With `CNc1nc(Nc2ccc(-n3ncnc3C)c(F)c2)nc2c1CCC2c1cc(F)c(F)c(F)c1` (centres unmarked) [Example 104, N^2-(3-fluoro-4-(5-methyl-1H-1,2,4-triazol-1-yl)phenyl)-N^4-methyl-7-(3,4,5-trifluorophenyl)-6,7-dihydro-5H-cyclopenta[d]pyrimidine-2,4-diamine] the IC50 was 10 to 100 nM.
In the case of `CNc1nc(Nc2ccc(-n3cnc(Cl)c3)c(OC)c2)nc2c1CCC2c1ccc(OC(F)(F)F)cc1` (racemic) [Example 97, N^2-(4-(4-Chloro-1H-imidazol-1-yl)-3-methoxyphenyl)-N^4-methyl-7-(4-(trifluoromethoxy)phenyl)-6,7-dihydro-5H-cyclopenta[d]pyrimidine-2,4-diamine], the IC50 is reported as 1.5 to 9.9 nM.
For `CCNc1nc(Nc2ccc(-n3cnc(Cl)c3)c(OC)c2)nc2c1CN(S(C)(=O)=O)CC2c1ccc(F)cc1` (centres unmarked) [Example 155A, N2-(4-(4-chloro-1H-imidazol-1-yl)-3-methoxyphenyl)-N4-ethyl-8-(4-fluorophenyl)-6-(methylsulfonyl)-5,6,7,8-tetrahydropyrido[4,3-d]pyrimidine-2,4-diamine], the IC50 was 1.5 to 9.9 nM.
For `CCNc1nc(Nc2ccc(-n3cnc(C)n3)c(F)c2)nc2c1CN(CC(F)(F)F)CC2c1ccccc1` (centres unmarked) [Example 145, N4-ethyl-N2-(3-fluoro-4-(3-methyl-1H-1,2,4-triazol-1-yl)phenyl)-8-phenyl-6-(2,2,2-trifluoroethyl)-5,6,7,8-tetrahydropyrido[4,3-d]pyrimidine-2,4-diamine], the IC50 was 10 to 100 nM.
`CNc1nc(Nc2ccc(-n3cnc(Cl)c3)c(OC)c2)nc2c1CCC2c1ccc(F)cc1` (single isomer, unassigned) [Example 11B, N^2-(4-(4-Chloro-1H-imidazol-1-yl)-3-methoxyphenyl)-7-(4-fluorophenyl)-N^4-methyl-6,7-dihydro-5H-cyclopenta[d]pyrimidine-2,4-diamine] was tested, and the IC50 was 1.5 to 9.9 nM.

Same assay, conditions: H4 APP751 SWE clone 8.20 cells, 19 h incubation; class symbols; read-out: Activity Rating (Aβ42 cellular IC50)
For `COCC(Nc1nc(Nc2ccc(-n3cnc(Cl)c3)c(OC)c2)nc2c1CCC2c1ccc(F)cc1)C1CC1` (single isomer, unassigned) [Example 45D, N2-(4-(4-chloro-1H-imidazol-1-yl)-3-methoxyphenyl)-N4-(1-cyclopropyl-2-methoxyethyl)-7-(4-fluorophenyl)-6,7-dihydro-5H-cyclopenta[d]pyrimidine-2,4-diamine], the IC50 was 1.5 to 9.9 nM.
`COc1cc(Nc2nc3c(c(N4CC[C@H](F)C4)n2)COC3c2ccc(F)cc2)ccc1-n1cnc(Cl)c1` (single isomer, unassigned) [Example 77] gave an IC50 of 10 to 100 nM.
